# Laboratory results as given in patent US9981944B2, “GDF-8 inhibitors” (Rigel Pharmaceuticals, Inc., priority 2015, dated 2018).
# Where a name gives a salt, the structure may show the parent alone.
# Legend:
# [1] = system: TGF-β signaling (p-SMAD-3 Ser423/425); test: AlphaScreen SureFire SMAD3 (p-Ser423/425) assay, TGF-β stimulated (TGF-β pSMAD (MPC-11)); format: cell-based
# [2] = system: GDF8 signaling (p-SMAD-3 Ser423/425); test: AlphaScreen SureFire SMAD3 (p-Ser423/425) assay, GDF8 stimulated (GDF pSMAD (MPC11)); format: cell-based; settings: Mus musculus, MPC-11, inhibition of GDF8 signaling
# HIS-TGFβR1 T204D = HIS-TGFβR1 T204D (Homo sapiens (Human), UniProt P36897, T204D); test: HTRF probe displacement assay, HIS-TGFβR1 T204D; format: binding; settings: 1 nM HIS-TGFβR1 T204D, 1 hour at room temperature, read-out: TGFBR1T204D IC50
# HIS-TGFβR1 T204D, sequence (P36897 34-503 T204D): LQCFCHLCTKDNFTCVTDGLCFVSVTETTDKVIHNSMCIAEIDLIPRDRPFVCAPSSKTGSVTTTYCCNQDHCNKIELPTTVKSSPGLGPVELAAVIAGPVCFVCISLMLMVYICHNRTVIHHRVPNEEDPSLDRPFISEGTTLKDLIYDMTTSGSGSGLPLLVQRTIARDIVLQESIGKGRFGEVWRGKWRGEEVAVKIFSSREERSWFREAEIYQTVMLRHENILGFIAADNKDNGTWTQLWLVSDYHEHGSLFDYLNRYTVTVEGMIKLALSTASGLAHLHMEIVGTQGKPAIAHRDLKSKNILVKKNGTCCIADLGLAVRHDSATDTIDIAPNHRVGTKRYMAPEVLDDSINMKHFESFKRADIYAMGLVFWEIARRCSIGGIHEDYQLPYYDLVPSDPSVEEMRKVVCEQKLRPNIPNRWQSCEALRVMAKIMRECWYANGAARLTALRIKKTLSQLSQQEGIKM
# Method: (§1) Compounds were dissolved at 10 mM in dimethylsulfoxide (DMSO) and evaluated at eleven concentrations. IC50 values were derived by non-linear regression analysis.
# HIS-TGFβR2 WT = HIS-TGFβR2 WT (Homo sapiens (Human), UniProt P37173); test: HTRF probe displacement assay, HIS-TGFβR2 WT; format: binding; settings: 1 nM HIS-TGFβR2 WT, 1 hour at room temperature, read-out: TGFBR2WT IC50
# HIS-TGFβR2 WT, sequence (P37173 23-567): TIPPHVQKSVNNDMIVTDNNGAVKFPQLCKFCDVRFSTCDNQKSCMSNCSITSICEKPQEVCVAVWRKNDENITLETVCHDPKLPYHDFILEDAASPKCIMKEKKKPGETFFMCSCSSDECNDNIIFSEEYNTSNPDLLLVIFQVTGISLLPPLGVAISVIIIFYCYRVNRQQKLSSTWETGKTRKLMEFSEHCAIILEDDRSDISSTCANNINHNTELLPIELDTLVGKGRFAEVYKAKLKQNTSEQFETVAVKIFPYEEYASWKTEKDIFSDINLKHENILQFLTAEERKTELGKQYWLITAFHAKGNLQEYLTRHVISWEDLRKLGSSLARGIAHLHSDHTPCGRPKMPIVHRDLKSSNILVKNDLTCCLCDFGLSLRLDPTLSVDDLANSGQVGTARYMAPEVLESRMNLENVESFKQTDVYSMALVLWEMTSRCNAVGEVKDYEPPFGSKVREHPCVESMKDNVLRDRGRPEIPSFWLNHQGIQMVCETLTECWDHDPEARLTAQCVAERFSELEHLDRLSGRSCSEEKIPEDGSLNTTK
# Method: as §1
# [3] = Mus musculus, MPC-11, inhibition of TGF-β signaling
SMILES,"IC50 [1, 3] [µM]",IC50 [2] [µM],further results
"Cc1cccc(-c2ncccc2-c2ccnc3ccccc23)n1 [Compound 1, 4-(6′-Methyl-[2,2′-bipyridin]-3-yl)quinolone]",10.6,19.7,–
"Cc1cccc(-c2ncccc2-c2ccc3ncnc(N)c3c2)n1 [Compound 2B, 6-(6′-methyl-[2,2′-bipyridin]-3-yl)quinazolin-4-aminium formate]",–,–,"IC50 ([1]; inhibition of TGF-β signaling, formate): 0.112 µM"
"Cc1cccc(-c2ncccc2-c2ccc3ncc(C#N)n3c2)n1 [Compound 3, 6-(6′-Methyl-[2,2′-bipyridin]-3-yl)imidazo[1,2-a]pyridine-3-carbonitrile]",1.71,0.734,–
"Cc1cccc(-c2ncccc2-c2ccc3ncnn3c2)n1 [Compound 4, 6-(6′-Methyl-[2,2′-bipyridin]-3-yl)-[1,2,4]triazolo[1,5-a]pyridine]",0.501,0.215,–
"Cc1cccc(-c2ncccc2-c2ccn3ncnc3c2)n1 [Compound 5, 7-(6′-Methyl-[2,2′-bipyridin]-3-yl)-[1,2,4]triazolo[1,5-a]pyridine]",1.07,0.28,–
"Cc1cccc(-c2ncccc2-c2ccc3ncc(C(N)=O)n3c2)n1 [Compound 6, 6-(6′-Methyl-[2,2′-bipyridin]-3-yl)imidazo[1,2-a]pyridine-3-carboxamide]",0.0538,0.0286,–
"N#Cc1cnc2ccc(-c3cccnc3-c3ccccn3)cn12 [Compound 7, 6-([2,2′-Bipyridin]-3-yl)imidazo[1,2-a]pyridine-3-carbonitrile]",–,8.51,–
"c1ccc(-c2ncccc2-c2ccc3ncnn3c2)nc1 [Compound 8, 6-([2,2′-Bipyridin]-3-yl)-[1,2,4]triazolo[1,5-a]pyridine]",23.6,8.06,–
"NC(=O)c1cnc2ccc(-c3cccnc3-c3ccccn3)cn12 [Compound 9, 6-([2,2′-Bipyridin]-3-yl)imidazo[1,2-a]pyridine-3-carboxamide]",0.281,0.119,–
"FC(F)(F)c1cccc(-c2ncccc2-c2ccn3nccc3n2)n1 [Compound 136, 5-(6′-(trifluoromethyl)-[2,2′-bipyridin]-3-yl)pyrazolo[1,5-a]pyrimidine]",–,–,IC50 (HIS-TGFβR1 T204D): 0.015 µM; IC50 (HIS-TGFβR2 WT): > 15 µM
"Cc1nc(-c2ncccc2-c2ccn3nccc3n2)ccc1F [Compound 137, 5-(5′-fluoro-6′-methyl-[2,2′-bipyridin]-3-yl)pyrazolo[1,5-a]pyrimidine]",–,–,IC50 (HIS-TGFβR1 T204D): 0.008 µM; IC50 (HIS-TGFβR2 WT): > 15 µM
"Cc1cccc(-c2ncccc2-c2ccn3nccc3n2)n1 [Compound 138, 5-(6′-methyl-[2,2′-bipyridin]-3-yl)pyrazolo[1,5-a]pyrimidine]",–,–,IC50 (HIS-TGFβR1 T204D): 0.005 µM; IC50 (HIS-TGFβR2 WT): > 15 µM

# The next lines start with results.
"IC50 [1, 3] [µM]",IC50 [2] [µM],SMILES,further results
–,0.129,"Cc1cccc(-c2ncccc2-c2ccc3ncnc(N)c3c2)n1 [Compound 2A, 6-(6′-methyl-[2,2′-bipyridin]-3-yl)quinazolin-4-aminium 2,2,2-trifluoroacetate]","IC50 ([1]; inhibition of TGF-β signaling, 2,2,2-trifluoroacetate): 0.251 µM"
1.17,0.229,"Nc1ncnc2ccc(-c3cccnc3-c3cccc(F)n3)cc12 [Compound 11A, 6-(6′-fluoro-[2,2′-bipyridin]-3-yl)quinazolin-4-aminium 2,2,2-trifluoroacetate]",–
5.48,1.31,"Nc1ncnc2ccc(-c3cccnc3-c3ccccn3)cc12 [Compound 12A, 6-([2,2′-bipyridin]-3-yl)quinazolin-4-aminium formate]",–
